In US10047098B2, “C5-C6-oxacyclic fused iminopyrimidinone compounds as bace inhibitors, compositions, and their use” (Merck Sharp & Dohme Corp., priority 2014, dated 2018):
Values belong to the molecule of their own block, whether it stands above or below them.

Assays:
[1] = molecular target: Recombinant human soluble BACE1 catalytic domain (Homo sapiens (Human), UniProt P56817); assay: BACE1 HTRF FRET Assay; format: biochemical; conditions: Ki calculated from IC50 using the Cheng-Prusoff equation; QSY7-APPswe-Eu substrate, pH 5.0; read-out: BACE-1 Ki
Description: Reagents: Na^+-Acetate pH 5.0; 1% Brij-35; Glycerol; Dimethyl Sulfoxide (DMSO); Recombinant human soluble BACE1 catalytic domain (>95% pure); APP Swedish mutant peptide substrate (QSY7-APP^swe-Eu): QSY7-EISEVNLDAEFC-Europium-amide.
A homogeneous time-resolved FRET assay can be used to determine IC50 values for inhibitors of the soluble human BACE1 catalytic domain. This assay monitors the increase of 620 nm fluorescence that resulted from BACE1 cleavage of an APPswedish APP^swe mutant peptide FRET substrate (QSY7-EISEVNLDAEFC-Europium-amide). This substrate contains an N-terminal QSY7 moiety that serves as a quencher of the C-terminal Europium fluorophore (620 nm Em). In the absence of enzyme activity, 620 nm fluorescence is low in the assay and increased linearly over 3 hours in the presence of uninhibited BACE1 enzyme. Inhibition of BACE1 cleavage of the QSY7-APP^swe-Eu substrate by inhibitors is manifested as a suppression of 620 nm fluorescence.
Varying concentrations of inhibitors at 3× the final desired concentration in a volume of 10 ul are preincubated with purified human BACE1 catalytic domain (3 nM in 10 μl) for 30 minutes at 30° C. in reaction buffer containing 20 mM Na-Acetate pH 5.0, 10% glycerol, 0.1% Brij-35 and 7.5% DSMO. Reactions are initiated by addition of 10 μl of 600 nM QSY7-APP^swe-Eu substrate (200 nM final) to give a final reaction volume of 30 μl in a 384 well Nunc HTRF plate. The reactions are incubated at 30° C. for 1.5 hours. The 620 nm fluorescence is then read on a Rubystar HTRF plate reader (BMG Labtechnologies) using a 50 millisecond delay followed by a 400 millisecond acquisition time window. Inhibitor IC50 values are derived from non-linear regression analysis of concentration response curves. Ki values are then calculated from IC50 values using the Cheng-Prusoff equation using a previously determined […] of 8 μM for the QSY7-APP^swe-Eu substrate at BACE1.

[2] = molecular target: purified human autoBACE-2 (Homo sapiens (Human), UniProt Q9Y5Z0); assay: BACE-2 Assay (BACE-HTRF assay); format: biochemical; conditions: Ki calculated from IC50 using the Cheng-Prusoff equation; QSY7-EISEVNLDAEFC-Eu-amide substrate, pH 5.0
Description: Inhibitor IC50s at purified human autoBACE-2 are determined in a time-resolved endpoint proteolysis assay that measures hydrolysis of the QSY7-[…]-Eu-amide FRET peptide substrate (BACE-HTRF assay). […] DMSO is present at 5% final concentration in the assay. Following laser excitation of sample wells at 320 nm, the fluorescence signal at 620 nm is collected for 400 ms following a 50 μs delay on a RUBYstar HTRF plate reader (BMG Labtechnologies). Raw RFU data is normalized to maximum (1.0 nM BACE/DMSO) and minimum (no enzyme/DMSO) RFU values. […] The Ki values are calculated from the IC50 using the Cheng-Prusoff equation.

Recombinant human soluble BACE1 catalytic domain, sequence (P56817 75-416): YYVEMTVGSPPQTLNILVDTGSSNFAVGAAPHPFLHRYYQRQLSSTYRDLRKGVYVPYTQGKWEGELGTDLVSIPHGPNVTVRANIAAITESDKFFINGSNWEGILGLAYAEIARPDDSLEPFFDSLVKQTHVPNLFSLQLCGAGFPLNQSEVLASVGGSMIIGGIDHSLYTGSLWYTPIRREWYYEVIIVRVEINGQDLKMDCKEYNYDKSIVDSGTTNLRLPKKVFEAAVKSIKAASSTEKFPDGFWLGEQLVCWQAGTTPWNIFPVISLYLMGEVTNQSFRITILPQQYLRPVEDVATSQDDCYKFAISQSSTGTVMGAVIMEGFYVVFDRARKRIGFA
purified human autoBACE-2, sequence (Q9Y5Z0 63-473 limits assumed): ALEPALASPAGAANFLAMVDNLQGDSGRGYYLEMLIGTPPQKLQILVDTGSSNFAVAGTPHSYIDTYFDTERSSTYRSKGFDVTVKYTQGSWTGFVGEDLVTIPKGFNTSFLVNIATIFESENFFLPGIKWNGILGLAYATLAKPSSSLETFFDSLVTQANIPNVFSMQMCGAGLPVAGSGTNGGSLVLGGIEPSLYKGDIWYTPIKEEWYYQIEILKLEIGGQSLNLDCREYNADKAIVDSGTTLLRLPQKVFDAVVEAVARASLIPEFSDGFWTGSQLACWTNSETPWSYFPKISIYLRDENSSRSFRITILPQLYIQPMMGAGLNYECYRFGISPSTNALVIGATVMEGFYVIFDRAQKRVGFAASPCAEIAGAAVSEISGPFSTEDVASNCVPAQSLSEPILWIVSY

Structure (SMILES): COCCOc1ccc(F)c([C@]23CO[C@@H](C4CC4)C[C@H]2C(=O)N(C)C(=N)N3)c1 [Example 50, (4aR,6R,8aS)-6-cyclopropyl-8a-(2-fluoro-5-(2-methoxyethoxy)phenyl)-2-imino-3-methylhexahydro-1H-pyrano[3,4-d]pyrimidin-4(4aH)-one]
Ki [1]: 92 nM
Ki [2]: 68 nM

Structure (SMILES): CN1C(=N)N[C@@]2(c3cc(Oc4ncncc4F)ccc3F)CO[C@@H](C3CC3)CC2C1=O (stereo partly drawn) [Example 58, (6R,8aS)-6-cyclopropyl-8a-(2-fluoro-5-((5-fluoropyrimidin-4-yl)oxy)phenyl)-2-imino-3-methylhexahydro-IH-pyrano[3,4-d]pyrimidin-4(4aH)-one]
Ki [1]: 13 nM
Ki [2]: 35 nM

Structure (SMILES): CN1C(=N)N[C@@]2(c3cc(Br)ccc3F)COCC[C@H]2C1=O [Example 86, (4aR,8aS)-8a-(5-bromo-2-fluorophenyl)-2-imino-3-methylhexahydro-IH-pyrano[3,4-d]pyrimidin-4(4aH)-one]
Ki [1]: 1200 nM
Ki [2]: 298 nM

Structure (SMILES): C[C@H]1C[C@H]2C(=O)N(C)C(=N)N[C@@]2(c2cc(OCC3CC3)ncc2F)CO1 [Example 92, (4aR,6S,8aS)-8a-(2-(cyclopropylmethoxy)-5-fluoropyridin-4-yl)-2-imino-3,6-dimethylhexahydro-1H-pyrano[3,4-d]pyrimidin-4(4aH)-one]
Ki [1]: 11.1 nM
Ki [2]: 2.19 nM

Structure (SMILES): C[C@H]1C[C@H]2C(=O)N(C)C(=N)N[C@@]2(c2cc(=O)n(CC3CC3)cc2F)CO1 [Example 94, (4aR,6S,8aS)-8a-(1-(cyclopropylmethyl)-5-fluoro-2-oxo-1,2-dihydropyridin-4-yl)-2-imino-3,6-dimethylhexahydro-1H-pyrano[3,4-d]pyrimidin-4(4aH)-one]
Ki [1]: 4180 nM
Ki [2]: 1590 nM

Structure (SMILES): CN1C(=N)N[C@@]2(c3cc(Oc4ccnc(C(F)F)c4)ccc3F)CO[C@@H](C3CC3)C[C@H]2C1=O [Example 20]
Ki [1]: 60 nM
Ki [2]: 228 nM

Structure (SMILES): C[C@H]1C[C@H]2C(=O)N(C)C(=N)N[C@@]2(c2cc(Oc3cncc(F)c3)ccc2F)CO1 [Example 78, (4aR,6S,8aS)-8a-(2-fluoro-5-((5-fluoropyridin-3-yl)oxy)phenyl)-2-imino-3,6-dimethylhexahydro-1H-pyrano[3,4-d]pyrimidin-4(4aH)-one]
Ki [1]: 20 nM
Ki [2]: 32.9 nM

Structure (SMILES): C[C@H]1C[C@H]2C(=O)N(C)C(=N)N[C@@]2(c2cc(Oc3ccc(F)cn3)ccc2F)CO1 [Example 68, (4aR,6S,8aS)-8a-(2-fluoro-5-((5-fluoropyridin-2-yl)oxy)phenyl)-2-imino-3,6-dimethylhexahydro-1H-pyrano[3,4-d]pyrimidin-4(4aH)-one]
Ki [1]: 157 nM
Ki [2]: 71.3 nM

Structure (SMILES): COC[C@H]1C[C@H]2C(=O)N(C)C(=N)N[C@@]2(c2cc(Oc3cc(F)cnc3F)c(F)cc2F)CO1 [Example 59, (4aR,6R,8aS)-8a-(5-((2,5-difluoropyridin-3-yl)oxy)-2,4-difluorophenyl)-2-imino-6-(methoxymethyl)-3-methylhexahydro-1H-pyrano[3,4-d]pyrimidin-4(4aH)-one]
Ki [1]: 3 nM
Ki [2]: 20 nM

Structure (SMILES): COC[C@H]1C[C@H]2C(=O)N(C)C(=N)N[C@@]2(c2cc(OCC3CC3)ccc2F)CO1 [Example 90, (4aR,6R,8aS)-8a-(5-(cyclopropylmethoxy)-2-fluorophenyl)-2-imino-6-(methoxymethyl)-3-methylhexahydro-1H-pyrano[3,4-d]pyrimidin-4(4aH)-one]
Ki [1]: 21 nM
Ki [2]: 8.84 nM

Other lines, results leading:

Ki [1]: 11 nM
Ki [2]: 109 nM
Structure (SMILES): CN1C(=N)N[C@@]2(c3cc(Oc4ncc(F)cc4F)ccc3F)CO[C@@H](C3CC3)C[C@H]2C1=O [Example 18, (4aR,6R,8aS)-6-cyclopropyl-8a-(5-((3,5-difluoropyridin-2-yl)oxy)-2-fluorophenyl)-2-imino-3-methylhexahydro-1H-pyrano[3,4-d]pyrimidin-4(4aH)-one]

Ki [1]: 55 nM
Ki [2]: 42 nM
Structure (SMILES): CN1C(=N)N[C@@]2(c3cc(OCC4CC(F)(F)C4)ccc3F)CO[C@@H](C3CC3)C[C@H]2C1=O [Example 51, (4aR,6R,8aS)-6-cyclopropyl-8a-(5-((3,3-difluorocyclobutyl)methoxy)-2-fluorophenyl)-2-imino-3-methylhexahydro-1H-pyrano[3,4-d]pyrimidin-4(4aH)-one]

Ki [1]: 6.6 nM
Ki [2]: 15.8 nM
Structure (SMILES): COc1cncc(Oc2ccc(F)c([C@]34CO[C@@H](C)C[C@H]3C(=O)N(C)C(=N)N4)c2)n1 [Example 65, (4aR,6S,8aS)-8a-(2-fluoro-5-((6-methoxypyrazin-2-yl)oxy)phenyl)-2-imino-3,6-dimethylhexahydro-1H-pyrano[3,4-d]pyrimidin-4(4aH)-one]

Ki [1]: 54 nM
Ki [2]: 11 nM
Structure (SMILES): CN1C(=N)N[C@@]2(c3cc(Oc4ccncc4)ccc3F)CO[C@@H](C3CC3)C[C@H]2C1=O [Example 40, (4aR,6R,8aS)-6-cyclopropyl-8a-(2-fluoro-5-(pyridin-4-yloxy)phenyl)-2-imino-3-methylhexahydro-1H-pyrano[3,4-d]pyrimidin-4(4aH)-one]

Ki [1]: 31.7 nM
Ki [2]: 13.4 nM
Structure (SMILES): C[C@H]1C[C@H]2C(=O)N(C)C(=N)N[C@@]2(c2cc(Oc3ccccn3)ccc2F)CO1 [Example 76, (4aR,6S,8aS)-8a-(2-fluoro-5-(pyridin-2-yloxy)phenyl)-2-imino-3,6-dimethylhexahydro-1H-pyrano[3,4-d]pyrimidin-4(4aH)-one]

Ki [1]: 295 nM
Ki [2]: 32.3 nM
Structure (SMILES): Cc1cccnc1Oc1ccc(F)c([C@]23CO[C@@H](C)C[C@H]2C(=O)N(C)C(=N)N3)c1 [Example 73, (4aR,6S,8aS)-8a-(2-fluoro-5-((3-methylpyridin-2-yl)oxy)phenyl)-2-imino-3,6-dimethylhexahydro-lH-pyrano[3,4-d]pyrimidin-4(4aH)-one]

Ki [1]: 9 nM
Ki [2]: 127 nM
Structure (SMILES): CN1C(=N)N[C@@]2(c3cc(OCC45CC(C#N)(C4)C5)ccc3F)CO[C@@H](C3CC3)C[C@H]2C1=O [Example 37, 3-((3-((4aR,6R,8aS)-6-cyclopropyl-2-imino-3-methyl-4-oxohexahydro-1H-pyrano[3,4-d]pyrimidin-8a(8H)-yl)-4-fluorophenoxy)methyl)bicyclo[1.1.1]pentane-1-carbonitrile]

Ki [1]: 13 nM
Ki [2]: 8 nM
Structure (SMILES): C[C@H]1C[C@H]2C(=O)N(C)C(=N)N[C@@]2(c2cc(OCC3CC3)ccc2F)CO1 [Example 23, (4aR,6S,8aS)-8a-(5-(cyclopropylmethoxy)-2-fluorophenyl)-2-imino-3,6-dimethylhexahydro-1H-pyrano[3,4-d]pyrimidin-4(4aH)-one]

Ki [1]: 30 nM
Ki [2]: 20 nM
Structure (SMILES): CN1C(=N)N[C@@]2(c3cc(OCC4CCC4)ccc3F)CO[C@@H](C3CC3)C[C@H]2C1=O [Example 44, (4aR,6R,8aS)-8a-(5-(cyclobutylmethoxy)-2-fluorophenyl)-6-cyclopropyl-2-imino-3-methylhexahydro-1H-pyrano[3,4-d]pyrimidin-4(4aH)-one]

Ki [1]: 8 nM
Ki [2]: 98 nM
Structure (SMILES): C[C@H]1C[C@H]2C(=O)N(C)C(=N)N[C@@]2(c2cc(OCC34CC(C#N)(C3)C4)ccc2F)CO1 [Example 26, 3-((4-fluoro-3-((4aR,6S,8aS)-2-imino-3,6-dimethyl-4-oxohexahydro-1H-pyrano[3,4-d]pyrimidin-8a(8H)-yl)phenoxy)methyl)bicyclo[1.1.1]pentane-1-carbonitrile]

Ki [1]: 37.6 nM
Ki [2]: 9.67 nM
Structure (SMILES): C[C@H]1C[C@H]2C(=O)N(C)C(=N)N[C@@]2(c2cc(Oc3ncccc3Cl)ccc2F)CO1 [Example 72, (4aR,6S,8aS)-8a-(5-((3-chloropyridin-2-yl)oxy)-2-fluorophenyl)-2-imino-3,6-dimethylhexahydro-1H-pyrano[3,4-d]pyrimidin-4(4aH)-one]

Ki [1]: 3 nM
Ki [2]: 25 nM
Structure (SMILES): COC[C@H]1C[C@H]2C(=O)N(C)C(=N)N[C@@]2(c2cc(Oc3cc(C#N)ccn3)ccc2F)CO1 [Example 30, 2-(4-fluoro-3-((4aR,6R,8aS)-2-imino-6-(methoxymethyl)-3-methyl-4-oxohexahydro-1H-pyrano[3,4-d]pyrimidin-8a(8H)-yl)phenoxy)isonicotinonitrile]
